From paper PMC10290391, “Targeted degradation of ⍺-synuclein aggregates in Parkinson’s disease using the AUTOTAC technology” (Molecular Neurodegeneration, 2023)
≈ marks a conversion by molar mass, not a printed value. Blank lines part the entries; values can stand above or below the compound they belong to.

Legend:
p62 and α-syn aggregates = biological target: T1, p62 and α-syn aggregates (Homo sapiens, UniProt P37840+Q13501); test: Proximity ligation assay (PLA) of p62 and α-syn in HEK293A cells; type: cell-based; details: α-syn PFF-transduced cells; 1 μM, 6 h
T1 construct: Recombinant human α-syn (1–140) were obtained from NKMAX (SNA2001L); endogenous in cells; host or cells: HEK293A cells transduced with h-α-syn PFFs
Method: Proximity ligation assays were conducted using a PLA kit (Sigma-Aldrich) according to the manufacturer’s protocol. 293A Cells were seeded on coverslips and cultured for 24 h. After fixation with 4% PFA, the cells were permeabilized with 0.1% Triton X-100. The cells were incubated with antibodies for p62 (Abcam; ab56319) and alpha-synuclein aggregates (Abcam; ab209538) overnight at 4 °C. After washing with PLA washing buffer, the cells were hybridized, ligated and amplified by rolling circle. Coverslips were mounted on slides using mounting medium containing DAPI, and the images were captured by confocal microscopy (Zeiss).

[1] = Pharmacokinetics of ATL compounds after oral administration in ICR male mice; type: in vivo; details: 5 mg/kg oral
Method: Supplementary file 13024_2023_630_MOESM1_ESM.eps: Additional file 1: Supplementary figure 1. Drug profiles of ATL and Autotac compounds. A, drug profiles of ATL compounds. Tissue concentrations and oral bioavailability were measured in ICR male mice upon 5 mg/kg oral administration of each ATL compound. B, structures of ATC161~164. C, Pharmacokinetic study of ATC161 conducted in male ICR mice otherwise indicated. M.W. represents molecular weight. The plasma exposure and the half-life were determined upon either POor IPATC161 administration. The drug tissue exposure was determined in Tau301L BiFC mice. IV refers to intravenous injection.

[2] = tested on: HEK293A cells transduced with h-α-syn PFFs; test: Immunocytochemistry in HEK293A cells transduced with h-α-syn PFFs; type: cell-based, human; details: 1 μM, 24 h
Method: Recombinant human α-syn (1–140) were obtained from NKMAX (SNA2001L). In vitro fibrillization was performed by diluting recombinant α-syn monomers to 1 mg/mL in sterile PBS, then incubating at 37 °C with constant agitation at 1,000 rpm for seven days. The fibrillization was verified by thioflavin T and sedimentation assays. The ability to form phospho-α-syn (S129) was also assessed by immunocytochemistry. In addition, to determine whether the generated PFFs act as seeds to accumulate endogenous α-syn, an adenovirus that expresses c-Myc-His-tagged human α-syn (gifted from lab of S.J.L) was used to infect cultured cells at an MOI of 10, followed by a fractionation assay. The administration of PFFs into 293A cells was done with protein delivery reagent (BioPORTER QuikEase Protein Delivery Kit, Sigma) following the provider’s instruction. The mouse α-syn PFFs were obtained from StressMarq (SPR-324). Prior to treatment, PFFs were sonicated at 20% amplitude, 1 s pulse on and off for 30 s (SONICS Vibra Cell sonicator, Merck Z412619). For cells, α-syn monomers and PFFs were transduced at 1 µg/mL.
Cells were fixed with 4% paraformaldehyde (PFA) for 20 min at room temperature, followed by permeabilization with 0.1% Triton X-100 buffer for 15 min. The cells were blocked with 2% bovine serum albumin (BSA) in PBS for 1 h at room temperature. Then, the cells were incubated with primary antibodies diluted in the blocking buffer overnight at 4 °C. After washing with PBS, the slides were incubated with AlexaFluor-conjugated secondary antibodies for 1 h at room temperature. After mounting the slides with mounting solution containing DAPI, the images were captured on an LSM700 confocal microscopy (Carl Zeiss).

p62 = p62 self-oligomerization and LC3 synthesis/lipidation by ATLs (in vitro p62 aggregation assay, rat cortex primary neurons); type: cell-based; details: ATL7, ATL13, ATL21 compared; 1 μM, 24 h in neurons, 1 mM in lysates
Solubility = type: physicochemical; details: pH 7.4
Plasma stability = type: in vitro ADME; details: after 120 min
Tyr residues of α-syn = biological target: Tyr residues of α-syn; design: method as in PMID 15096521; details: cited from earlier work
α-syn amyloids = biological target: α-syn amyloids; design: method as in PMID 17597573; details: cited from earlier work

Structure (SMILES): O=c1cc(-c2ccccc2)oc2cc(O)c(O)c(O)c12 [baicalein]
Kd (Tyr residues of α-syn): 0.5 µM

Structure (SMILES): Oc1ccc(/C=C/c2cc(O)cc(O)c2)cc1 [resveratrol]
Kd (α-syn amyloids): 36.8 µM

Further lines, with some results ahead:

AUClast in brain [1]: 722.9 ng·h/g | Kp ([1]; mouse, brain and plasma, brain vs plasma AUClast, read-out: B/P ratio): ~3
Structure (SMILES): OCCNCc1ccc(OCc2ccccc2)c(OCCCc2ccccc2)c1 [ATL7, 2-((4-(benzyloxy)-3-(3-phenylpropoxy)benzyl)amino)ethan-1-ol]
interaction between p62 and α-syn aggregates (PLA puncta) (p62 and α-syn aggregates): failed to enhance the interaction between p62 and α-syn aggregates | increase in number of p62+LC3+ colocalizing puncta [2]: approximately 81% | targeting of α-syn to LC3+ autophagic membranes ([2]; absence and presence of bafilomycin A1): did not show significant activities | relative activity to induce p62 self-oligomerization and LC3 synthesis and lipidation (p62): highest activities

solubility (Solubility): 106 µg/mL (≈ 383 µM) | plasma stability, remaining (Plasma stability): 96.3%
Structure (SMILES): OCCNCc1cccc(OCc2ccc(F)cc2)c1 [ATL13, 2-((3-((4-fluorobenzyl)oxy)benzyl)amino)ethan-1-ol]

AUC(0-t) ([1]; mouse, plasma, read-out: oral bioavailability, AUClast): 2590 ng·h/mL
Structure (SMILES): OCCNC[C@@H](O)COc1ccc(OCc2ccc(F)cc2)c(OCc2ccc(F)cc2)c1 [ATL21, (R)-1-(3,4-bis((4-fluorobenzyl)oxy)phenoxy)-3-((2hydroxyethyl)amino)propan-2-ol]
